In US10118955B2, “C-terminal fragments of glucagon-like peptide-1 (GLP-1)” (The General Hospital Corporation, priority 2008, dated 2018):
Ends that are not written are not given here.

Assays:
3T3-L1 adipocytes = assay: lipolysis (glycerol release) in 3T3-L1 adipocytes; format: cell-based; conditions: 1-30 nM on a background of 10 nM isoproterenol, 60 min
Procedure: Preliminary studies on the effect of GLP-1(9-36) on lipolysis were also performed in isolated mouse hepatocytes and 3T3-L1 adipocytes. Glycerol release into the culture medium was used as a measure of active lipolysis, and isoproterenol serves as a known stimulator of lipolysis. In these experiments GLP-1(9-36)amide was added dose-wise (1-30 nM) on a background of 10 nM isoproterenol. Incubations were for 60 min.

[1] = Ban et al. 2008; cited from earlier work
[2] = system: hepatic glucose production (gluconeogenesis); conditions: Elahi et al. 2008; cited from earlier work
isolated hepatocytes = assay: hepatic gluconeogenesis in isolated hepatocytes (preliminary studies); format: cell-based; conditions: high (micromolar) concentrations
white adipocytes = conditions: Rodrigue-Way et al. 2007; cited from earlier work
GLP-1 GPCR = GLP-1 GPCR (Homo sapiens, UniProt P43220); conditions: (nM); cited from earlier work
[3] = infusion in mice fed a very high fat diet: body weight, adipogenesis, food intake; format: in vivo; conditions: for weight gain: mice on VHFD (60% fat), continuous infusion 6.5 nanomoles/24 hrs/KgBW via osmopumps, 3 weeks
Procedure: (§1) Mice were placed on VHFD or a LFD control diets at 6 weeks of age. Continuous infusion of GLP-1(28-36)amide, 6.5 nanomoles/24 hrs/KgBW via osmopumps was started at ten weeks of age and was continued for 3 weeks. Body weights were measured before and during these three weeks. Values are means and S.D.s of four mice in each group.
Glucagon-like peptide-1 (GLP-1) is an insulinotropic peptide that stimulates glucose-dependent insulin secretion (Kieffer and Habener, Endocr Rev. 20(6):876-913 (1999)). […] The neutral endopeptidase, NEP 24.11 is proposed to be responsible for the degradation of GLP-1, much as the Dpp4 had been thought of as a peptide degrading enzyme for GLP-1 (Plamboeck et al., Diabetologia. 48(9):1882-90 (2005)). The carboxyl-terminal sequence of GLP-1, […]amide, GLP-1(28-36)amide, is a major peptide product of the cleavage of GLP-1 by NEP 24.11 (Hupe-Sodmann et al., Regul Pept. 58(3):149-56 (1995)). Therefore GLP-1(28-36)amide was infused into mice both fed a normal chow diet (LFD) and a very high fat diet (VHFD) for three weeks.

[4] = system: phosphoACC (pACC, phospho-AcetylCoA carboxylase); assay: liver ACC / phosphoACC protein expression after infusion; format: in vivo; conditions: mice fed a very high fat diet, infusion for three weeks
Source text: FIGS. 4A-4C are bar graphs showing regulation of PEPCK (4A) and ACC Protein Expression (both the phosphorylated (pACC) and unphosphorylated (ACC) forms (4B) in the presence and absence of the GLP-1(28-36) peptide, as well as the effect of the peptide on ratios of phosphorylated to unphosphorylated ACC (4C).
This is important since ACC is highly regulated in the liver and is the key enzyme responsible for the synthesis of malonyl CoA from AcetylCoA and is a precursor of fatty acid synthesis and a potent inhibitor of CPT1 (carnitine palmitoyl transferase 1), the rate limiting enzyme in the transport of fatty acids into the beta oxidation machinery of mitochondria. This means that GLP-1(28-36) is exerting an inhibition on fatty acid oxidation (beta oxidation). The increase in SCD1 expression in response to infusion of GLP-1(28-36)amide is consistent with an increase in ACC activity since SCD1 is believed to inhibit AMP kinase which is an inhibitor of ACC. The mechanism currently proposed for the prevention of weight gain by GLP-1(28-36)amide in mice fed a very high fat diet involves a dual effect of GLP-1(28-36)amide on adipose tissue to enhance lipolysis and fat burning and inhibit lipogenesis. The increased fatty acid cycling and hypertriglyceridemia enhances hepatic fatty acid oxidation with consequent coupled enhanced gluconeogenesis driven by the enhanced fat burning. […]

FASN mRNA = assay: liver mRNA levels by QPCR in mice infused with GLP-1(28-36)amide; format: in vivo; conditions: 28-36 infusion 3 weeks
Procedure: as §1
(§2) An examination of gene expression profiles in the livers of GLP-1(28-36)amide treated mice was performed. Measurements of mRNA levels by quantitative polymerase chain reaction (QPCR) in livers of mice given a very high fat diet (VHFD) or a normal low fat diet (LFD) for four weeks followed by subcutaneous osmopump infusions of either vehicle or GLP-1(28-36)amide for three additional weeks. Data in Table 2, below, show changes in mRNA levels in LFD and VHFD groups of mice comparing vehicle versus GLP-1(28-36)amide where vehicle is set at a value of 1.0. […] GLP-1(28-36)amide appears to regulate PEPCK, PPARg, CD36, SCD1, SREBP1c, FASN, and PPARa.

PPARα mRNA = assay: as above; format: in vivo; conditions: 28-36 infusion 3 weeks; for PPARα mRNA/QPCR Fold Difference compared to LFD: normalized to LFD mice as 1.0, parentheses = down-regulation
Procedure: as §1, §2

SCD-1 mRNA = assay: as above; format: in vivo
Procedure: as §1, §2

CD36 mRNA = assay: as above; format: in vivo; conditions: 28-36 infusion 3 weeks; for CD36 mRNA/QPCR Fold Difference compared to LFD: normalized to LFD mice as 1.0, parentheses = down-regulation
Procedure: as §1, §2

SREBP-1c mRNA = assay: as above; format: in vivo; conditions: 28-36 infusion 3 weeks; for SREBP-1c mRNA/QPCR Fold Difference compared to LFD: normalized to LFD mice as 1.0, parentheses = down-regulation
Procedure: as §1, §2

ACOX mRNA = assay: as above; format: in vivo; conditions: 28-36 infusion 3 weeks; for ACOX mRNA/QPCR Fold Difference compared to LFD: normalized to LFD mice as 1.0, parentheses = down-regulation
Procedure: as §1, §2

PGC1α mRNA = assay: as above; format: in vivo; conditions: 28-36 infusion 3 weeks
Procedure: as §1, §2

PPARγ mRNA = assay: as above; format: in vivo; conditions: 28-36 infusion 3 weeks; for PPARγ mRNA/QPCR Fold Difference compared to LFD: normalized to LFD mice as 1.0, parentheses = down-regulation
Procedure: as §1, §2

[5] = system: PEPCK (phosphopyruvate carboxykinase) mRNA; assay: as above; format: in vivo; conditions: 28-36 infusion 3 weeks; for PEPCK mRNA/QPCR Fold Difference compared to LFD: normalized to LFD mice as 1.0, parentheses = down-regulation
Procedure: as §1, §2

CPT1 mRNA = assay: as above; format: in vivo; conditions: 28-36 infusion 3 weeks; for CPT1 mRNA/QPCR Fold Difference compared to LFD: normalized to LFD mice as 1.0, parentheses = down-regulation
Procedure: as §1, §2

[6] = high fat fed mice, infusion for three weeks
[7] = LFD mice, normalized to LFD mice as 1.0, parentheses = down-regulation
[8] = LFD mice, vehicle set at 1.0, parentheses = down-regulation
[9] = VHFD mice, VHFD vehicle set at 1.0, parentheses = down-regulation

Chain of GLP-1 GPCR (P43220 24-463): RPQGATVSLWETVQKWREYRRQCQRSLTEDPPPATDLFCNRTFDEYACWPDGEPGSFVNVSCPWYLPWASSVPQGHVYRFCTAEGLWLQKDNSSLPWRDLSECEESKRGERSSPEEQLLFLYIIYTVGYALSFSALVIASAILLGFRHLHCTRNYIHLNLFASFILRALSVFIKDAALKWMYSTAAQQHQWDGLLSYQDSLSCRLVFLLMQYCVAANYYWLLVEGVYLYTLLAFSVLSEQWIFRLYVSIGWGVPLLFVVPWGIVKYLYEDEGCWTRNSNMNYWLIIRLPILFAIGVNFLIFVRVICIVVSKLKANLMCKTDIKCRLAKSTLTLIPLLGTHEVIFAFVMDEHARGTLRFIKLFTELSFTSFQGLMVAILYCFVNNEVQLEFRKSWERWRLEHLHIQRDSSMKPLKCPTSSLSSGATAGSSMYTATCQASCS

Compound: GLP-1(9-36)amide
- lipolysis (glycerol release into the culture medium) (3T3-L1 adipocytes): stimulates lipolysis in 3T3-L1 adipocytes in a dose dependent manner
- cardioprotective actions [1]: exerts cardioprotective actions
- hepatic glucose production (gluconeogenesis) [2]: inhibits
- actions on hepatic gluconeogenesis (isolated hepatocytes): only weak actions

Compound: Cc1[nH]c2ccccc2c1C[C@@H](NC(=O)[C@@H](N)Cc1cnc[nH]1)C(=O)N[C@@H](C)C(=O)N[C@@H](Cc1c[nH]c2ccccc12)C(=O)N[C@H](Cc1ccccc1)C(=O)N[C@@H](CCCCN)C(N)=O [hexarelin, H-W(Me)-A-W-F-Kamide]
- mitochondrial biogenesis and fat burning phenotype (white adipocytes): promote mitochondrial biogenesis and a fat burning phenotype

Compound: exendin-4
- binding affinity to the GLP-1 GPCR (GLP-1 GPCR): high affinity

Compound: FIAWLVKGR-NH2 [28-36]
- adipogenesis [3, 6]: completely prevented
- food intake [3, 6]: without observable differences
- weight gain ([3]; listed as GLP-1(28-36)): attenuates weight gain
- weight gain ([3]; listed as GLP-1(28-36)amide): completely prevented
- liver phosphoACC (pACC) [4]: decrease
- FASN mRNA/QPCR Fold Difference compared to LFD (FASN mRNA; [7]): 1 fold
- FASN mRNA/QPCR Fold Difference compared to PEPTIDE (28-36) (FASN mRNA; [8]): 1 fold
- FASN mRNA/QPCR Fold Difference compared to PEPTIDE (28-36) (FASN mRNA; [9]): 1.2 fold
- PPARα mRNA/QPCR Fold Difference compared to LFD (PPARα mRNA; LFD mice): 1.2 fold
- PPARα mRNA/QPCR Fold Difference compared to PEPTIDE (28-36) (PPARα mRNA; [8]): 1.2 fold
- PPARα mRNA/QPCR Fold Difference compared to PEPTIDE (28-36) (PPARα mRNA; [9]): 1.35 fold
- PPARα mRNA/QPCR Fold Difference compared to LFD (PPARα mRNA; VHFD mice): 1.9 fold
- SCD1 expression (SCD-1 mRNA; in response to infusion of GLP-1(28-36)amide): increase
- SCD-1 mRNA/QPCR Fold Difference compared to PEPTIDE (28-36) (SCD-1 mRNA; liver, VHFD mice, 28-36 infusion 3 weeks, VHFD vehicle set at 1.0, parentheses = down-regulation): 3.05 fold
- CD36 mRNA/QPCR Fold Difference compared to LFD (CD36 mRNA; LFD mice): 1.25 fold
- CD36 mRNA/QPCR Fold Difference compared to PEPTIDE (28-36) (CD36 mRNA; [8]): 1.25 fold
- CD36 mRNA/QPCR Fold Difference compared to PEPTIDE (28-36) (CD36 mRNA; [9]): 1.7 fold
- CD36 mRNA/QPCR Fold Difference compared to LFD (CD36 mRNA; VHFD mice): 1.7 fold
- SREBP-1c mRNA/QPCR Fold Difference compared to LFD (SREBP-1c mRNA; LFD mice): 1 fold
- SREBP-1c mRNA/QPCR Fold Difference compared to PEPTIDE (28-36) (SREBP-1c mRNA; [8]): 1.1 fold
- SREBP-1c mRNA/QPCR Fold Difference compared to PEPTIDE (28-36) (SREBP-1c mRNA; [9]): 1.3 fold
- SREBP-1c mRNA/QPCR Fold Difference compared to LFD (SREBP-1c mRNA; VHFD mice): 1 fold
- ACOX mRNA/QPCR Fold Difference compared to LFD (ACOX mRNA; LFD mice): 1.4 fold
- ACOX mRNA/QPCR Fold Difference compared to PEPTIDE (28-36) (ACOX mRNA; [8]): 1.4 fold
- ACOX mRNA/QPCR Fold Difference compared to PEPTIDE (28-36) (ACOX mRNA; [9]): 1.04 fold
- ACOX mRNA/QPCR Fold Difference compared to LFD (ACOX mRNA; VHFD mice): 1.2 fold
- PGC1α mRNA/QPCR Fold Difference compared to LFD (PGC1α mRNA; [7]): 1.35 fold
- PGC1α mRNA/QPCR Fold Difference compared to PEPTIDE (28-36) (PGC1α mRNA; [8]): 1.4 fold
- PGC1α mRNA/QPCR Fold Difference compared to PEPTIDE (28-36) (PGC1α mRNA; [9]): 1.2 fold
- PPARγ mRNA/QPCR Fold Difference compared to LFD (PPARγ mRNA; LFD mice): 1.54 fold
- PPARγ mRNA/QPCR Fold Difference compared to PEPTIDE (28-36) (PPARγ mRNA; [8]): 1.54 fold
- PPARγ mRNA/QPCR Fold Difference compared to PEPTIDE (28-36) (PPARγ mRNA; [9]): 1.4 fold
- PPARγ mRNA/QPCR Fold Difference compared to LFD (PPARγ mRNA; VHFD mice): 2.2 fold
- PEPCK mRNA/QPCR Fold Difference compared to LFD ([5]; LFD mice): 1.6 fold
- PEPCK mRNA/QPCR Fold Difference compared to PEPTIDE (28-36) [5, 8]: 1.6 fold
- PEPCK mRNA/QPCR Fold Difference compared to PEPTIDE (28-36) [5, 9]: 1.5 fold
- PEPCK mRNA/QPCR Fold Difference compared to LFD ([5]; VHFD mice): 1.6 fold
- CPT1 mRNA/QPCR Fold Difference compared to LFD (CPT1 mRNA; LFD mice): 1.2 fold
- CPT1 mRNA/QPCR Fold Difference compared to PEPTIDE (28-36) (CPT1 mRNA; [8]): 1.21 fold
- CPT1 mRNA/QPCR Fold Difference compared to PEPTIDE (28-36) (CPT1 mRNA; [9]): 1.02 fold
- CPT1 mRNA/QPCR Fold Difference compared to LFD (CPT1 mRNA; VHFD mice): 1.74 fold
